Test results published in patent publication US20250243196A1, “CITRON KINASE INHIBITORS” (The Cleveland Clinic Foundation, priority 2021, published 2025).

Experiments:
Test in all cases: KinaseProfiler panel
Assay type in all cases: biochemical
Details in all cases: activity remaining
Abl(h) = Abl(h) (Homo sapiens (Human), UniProt P00519); parameters: dose or concentration left out as unconfirmed
ASK1(h) = ASK1(h) (Homo sapiens (Human), UniProt Q99683); parameters: dose or concentration left out as unconfirmed
ATR/ATRIP(h) = ATR/ATRIP(h) (Homo sapiens (Human), UniProt Q13535); parameters: dose or concentration left out as unconfirmed
Aurora-C(h) = Aurora-C(h) (Homo sapiens (Human), UniProt Q9UQB9)
Blk(h) = Blk(h) (Homo sapiens (Human), UniProt P51451); parameters: dose or concentration left out as unconfirmed
Blk(h), sequence (P51451 whole entry): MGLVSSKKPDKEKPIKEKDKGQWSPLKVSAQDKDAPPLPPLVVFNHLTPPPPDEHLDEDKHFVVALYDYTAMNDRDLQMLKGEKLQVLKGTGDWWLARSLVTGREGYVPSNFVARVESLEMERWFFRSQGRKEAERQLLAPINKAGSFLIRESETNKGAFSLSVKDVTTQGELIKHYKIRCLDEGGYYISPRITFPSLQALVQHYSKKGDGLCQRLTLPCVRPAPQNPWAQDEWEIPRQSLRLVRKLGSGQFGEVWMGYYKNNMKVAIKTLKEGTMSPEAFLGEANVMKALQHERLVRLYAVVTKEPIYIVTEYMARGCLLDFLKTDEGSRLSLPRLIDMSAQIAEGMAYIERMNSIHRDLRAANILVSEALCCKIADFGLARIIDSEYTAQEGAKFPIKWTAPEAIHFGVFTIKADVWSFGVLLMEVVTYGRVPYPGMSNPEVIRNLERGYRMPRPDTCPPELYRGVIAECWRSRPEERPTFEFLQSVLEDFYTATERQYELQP

CDK14/cyclinY(h) = CDK14/cyclinY(h) (Homo sapiens (Human), UniProt O94921); parameters: dose or concentration left out as unconfirmed
CDK6/cyclinD3(h) = CDK6/cyclinD3(h) (Homo sapiens (Human), UniProt Q00534); parameters: dose or concentration left out as unconfirmed
CDK7/cyclinH/MAT1(h) = CDK7/cyclinH/MAT1(h) (Homo sapiens (Human), UniProt P50613); parameters: dose or concentration left out as unconfirmed
CDKL1(h) = CDKL1(h) (Homo sapiens (Human), UniProt Q00532); parameters: dose or concentration left out as unconfirmed
CK1δ(h) = CK1δ(h) (Homo sapiens (Human), UniProt P48730); parameters: dose or concentration left out as unconfirmed
CK2(h) = CK2(h) (Homo sapiens (Human), UniProt P68400); parameters: dose or concentration left out as unconfirmed
CK2(h), sequence (P68400 whole entry): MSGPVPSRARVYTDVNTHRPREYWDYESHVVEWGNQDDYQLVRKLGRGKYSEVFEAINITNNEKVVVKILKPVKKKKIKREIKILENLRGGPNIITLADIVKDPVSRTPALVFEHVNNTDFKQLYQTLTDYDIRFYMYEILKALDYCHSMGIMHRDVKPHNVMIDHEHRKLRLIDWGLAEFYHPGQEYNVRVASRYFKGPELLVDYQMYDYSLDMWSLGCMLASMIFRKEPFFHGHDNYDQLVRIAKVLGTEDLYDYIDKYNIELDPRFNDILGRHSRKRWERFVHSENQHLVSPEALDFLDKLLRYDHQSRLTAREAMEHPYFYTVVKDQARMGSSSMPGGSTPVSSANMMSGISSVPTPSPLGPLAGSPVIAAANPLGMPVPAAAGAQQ
CK2(h), sequence (P67870 whole entry partner): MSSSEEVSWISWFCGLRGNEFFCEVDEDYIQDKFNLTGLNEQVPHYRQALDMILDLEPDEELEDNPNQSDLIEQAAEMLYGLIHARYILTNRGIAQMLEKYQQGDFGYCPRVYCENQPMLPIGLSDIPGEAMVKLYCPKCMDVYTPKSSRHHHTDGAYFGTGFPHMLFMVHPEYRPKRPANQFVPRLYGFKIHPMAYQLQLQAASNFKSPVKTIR

DCAMKL1(h) = DCAMKL1(h) (Homo sapiens (Human), UniProt O15075); parameters: dose or concentration left out as unconfirmed
DYRK1B(h) = DYRK1B(h) (Homo sapiens (Human), UniProt Q9Y463); parameters: dose or concentration left out as unconfirmed
DYRK1B(h), sequence (Q9Y463 whole entry): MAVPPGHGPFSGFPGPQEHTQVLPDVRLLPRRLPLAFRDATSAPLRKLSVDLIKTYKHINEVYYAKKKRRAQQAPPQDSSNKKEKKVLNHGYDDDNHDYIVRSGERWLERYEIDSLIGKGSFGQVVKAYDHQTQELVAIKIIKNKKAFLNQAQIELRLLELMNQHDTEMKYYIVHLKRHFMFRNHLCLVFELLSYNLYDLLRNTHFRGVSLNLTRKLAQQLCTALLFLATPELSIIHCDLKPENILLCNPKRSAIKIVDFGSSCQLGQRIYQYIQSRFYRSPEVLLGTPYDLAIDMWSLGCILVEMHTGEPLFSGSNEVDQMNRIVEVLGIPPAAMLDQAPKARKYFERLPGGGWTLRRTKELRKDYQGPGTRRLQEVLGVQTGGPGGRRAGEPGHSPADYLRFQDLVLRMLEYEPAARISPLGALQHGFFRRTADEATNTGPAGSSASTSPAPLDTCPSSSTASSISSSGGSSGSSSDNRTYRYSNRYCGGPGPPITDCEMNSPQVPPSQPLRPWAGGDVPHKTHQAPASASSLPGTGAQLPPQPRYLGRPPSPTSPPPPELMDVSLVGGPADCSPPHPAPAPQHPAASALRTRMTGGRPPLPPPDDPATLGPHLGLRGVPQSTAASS

DYRK3(h) = DYRK3(h) (Homo sapiens (Human), UniProt O43781); parameters: dose or concentration left out as unconfirmed
EphA8(h) = EphA8(h) (Homo sapiens (Human), UniProt P29322); parameters: dose or concentration left out as unconfirmed
GRK3(h) = GRK3(h) (Homo sapiens (Human), UniProt P35626); parameters: dose or concentration left out as unconfirmed
IRR(h) = IRR(h) (Homo sapiens (Human), UniProt P14616); parameters: dose or concentration left out as unconfirmed
JAK2(h) = JAK2(h) (Homo sapiens (Human), UniProt O60674); parameters: dose or concentration left out as unconfirmed
JAK2(h), sequence (O60674 whole entry): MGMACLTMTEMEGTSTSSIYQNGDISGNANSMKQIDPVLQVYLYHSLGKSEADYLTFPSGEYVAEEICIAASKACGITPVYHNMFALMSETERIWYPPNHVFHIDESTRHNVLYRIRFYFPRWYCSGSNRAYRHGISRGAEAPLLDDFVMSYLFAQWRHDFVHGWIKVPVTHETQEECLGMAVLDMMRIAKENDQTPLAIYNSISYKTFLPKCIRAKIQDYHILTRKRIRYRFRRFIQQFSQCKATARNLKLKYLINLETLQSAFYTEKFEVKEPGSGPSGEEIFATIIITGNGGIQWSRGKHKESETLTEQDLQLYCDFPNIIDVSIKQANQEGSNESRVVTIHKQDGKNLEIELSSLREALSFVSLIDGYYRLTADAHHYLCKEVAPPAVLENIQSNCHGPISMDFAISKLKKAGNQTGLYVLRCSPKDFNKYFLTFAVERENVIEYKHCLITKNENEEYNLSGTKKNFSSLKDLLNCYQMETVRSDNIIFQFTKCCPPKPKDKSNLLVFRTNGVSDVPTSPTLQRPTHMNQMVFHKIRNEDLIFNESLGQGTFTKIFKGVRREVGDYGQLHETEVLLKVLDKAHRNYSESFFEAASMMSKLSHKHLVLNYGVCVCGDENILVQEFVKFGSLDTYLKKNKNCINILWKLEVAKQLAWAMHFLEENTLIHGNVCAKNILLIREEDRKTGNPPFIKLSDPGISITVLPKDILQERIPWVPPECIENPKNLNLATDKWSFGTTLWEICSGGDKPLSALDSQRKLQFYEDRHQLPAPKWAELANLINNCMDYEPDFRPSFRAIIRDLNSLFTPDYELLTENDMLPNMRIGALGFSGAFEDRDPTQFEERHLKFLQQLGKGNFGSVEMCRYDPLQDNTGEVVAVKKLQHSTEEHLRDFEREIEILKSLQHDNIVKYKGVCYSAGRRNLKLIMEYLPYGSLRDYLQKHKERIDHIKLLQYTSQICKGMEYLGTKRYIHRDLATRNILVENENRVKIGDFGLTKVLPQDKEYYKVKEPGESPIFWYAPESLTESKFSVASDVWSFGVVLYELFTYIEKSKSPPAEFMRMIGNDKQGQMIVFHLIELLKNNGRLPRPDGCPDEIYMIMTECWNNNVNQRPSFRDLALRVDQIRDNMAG

JNK2α2(h) = JNK2α2(h) (Homo sapiens (Human), UniProt P45984); parameters: dose or concentration left out as unconfirmed
LATS1(h) = LATS1(h) (Homo sapiens (Human), UniProt O95835); parameters: dose or concentration left out as unconfirmed
LATS2(h) = LATS2(h) (Homo sapiens (Human), UniProt Q9NRM7); parameters: dose or concentration left out as unconfirmed
LIMK1(h) = LIMK1(h) (Homo sapiens (Human), UniProt P53667); parameters: dose or concentration left out as unconfirmed
LIMK1(h), sequence (P53667 whole entry): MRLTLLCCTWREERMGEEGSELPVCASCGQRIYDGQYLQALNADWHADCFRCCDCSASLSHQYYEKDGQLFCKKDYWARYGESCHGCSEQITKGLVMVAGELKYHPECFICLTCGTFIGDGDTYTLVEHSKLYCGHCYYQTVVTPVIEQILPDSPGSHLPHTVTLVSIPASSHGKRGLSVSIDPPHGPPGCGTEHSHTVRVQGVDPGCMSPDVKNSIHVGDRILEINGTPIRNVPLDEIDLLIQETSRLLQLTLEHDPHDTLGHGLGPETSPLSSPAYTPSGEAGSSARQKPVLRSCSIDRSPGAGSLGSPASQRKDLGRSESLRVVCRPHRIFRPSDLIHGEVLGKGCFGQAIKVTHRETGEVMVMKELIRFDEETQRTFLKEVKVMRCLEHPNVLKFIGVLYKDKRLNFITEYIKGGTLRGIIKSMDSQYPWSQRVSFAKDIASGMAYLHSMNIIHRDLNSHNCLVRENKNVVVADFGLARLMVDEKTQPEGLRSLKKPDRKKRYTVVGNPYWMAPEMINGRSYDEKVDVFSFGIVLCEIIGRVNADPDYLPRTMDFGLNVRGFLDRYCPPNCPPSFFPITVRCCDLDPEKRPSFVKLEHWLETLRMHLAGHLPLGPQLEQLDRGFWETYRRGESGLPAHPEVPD

MARK1(h) = MARK1(h) (Homo sapiens (Human), UniProt Q9P0L2); parameters: dose or concentration left out as unconfirmed
MLCK(h) = MLCK(h) (Homo sapiens (Human), UniProt Q15746); parameters: dose or concentration left out as unconfirmed
NEK6(h) = NEK6(h) (Homo sapiens (Human), UniProt Q9HC98); parameters: dose or concentration left out as unconfirmed
Plk4(h) = Plk4(h) (Homo sapiens (Human), UniProt O00444); parameters: dose or concentration left out as unconfirmed
PRP4(h) = PRP4(h) (Homo sapiens (Human), UniProt Q13523); parameters: dose or concentration left out as unconfirmed
STK33(h) = STK33(h) (Homo sapiens (Human), UniProt Q9BYT3); parameters: dose or concentration left out as unconfirmed
TAO2(h) = TAO2(h) (Homo sapiens (Human), UniProt Q9UL54)
TAO2(h), sequence (Q9UL54 whole entry): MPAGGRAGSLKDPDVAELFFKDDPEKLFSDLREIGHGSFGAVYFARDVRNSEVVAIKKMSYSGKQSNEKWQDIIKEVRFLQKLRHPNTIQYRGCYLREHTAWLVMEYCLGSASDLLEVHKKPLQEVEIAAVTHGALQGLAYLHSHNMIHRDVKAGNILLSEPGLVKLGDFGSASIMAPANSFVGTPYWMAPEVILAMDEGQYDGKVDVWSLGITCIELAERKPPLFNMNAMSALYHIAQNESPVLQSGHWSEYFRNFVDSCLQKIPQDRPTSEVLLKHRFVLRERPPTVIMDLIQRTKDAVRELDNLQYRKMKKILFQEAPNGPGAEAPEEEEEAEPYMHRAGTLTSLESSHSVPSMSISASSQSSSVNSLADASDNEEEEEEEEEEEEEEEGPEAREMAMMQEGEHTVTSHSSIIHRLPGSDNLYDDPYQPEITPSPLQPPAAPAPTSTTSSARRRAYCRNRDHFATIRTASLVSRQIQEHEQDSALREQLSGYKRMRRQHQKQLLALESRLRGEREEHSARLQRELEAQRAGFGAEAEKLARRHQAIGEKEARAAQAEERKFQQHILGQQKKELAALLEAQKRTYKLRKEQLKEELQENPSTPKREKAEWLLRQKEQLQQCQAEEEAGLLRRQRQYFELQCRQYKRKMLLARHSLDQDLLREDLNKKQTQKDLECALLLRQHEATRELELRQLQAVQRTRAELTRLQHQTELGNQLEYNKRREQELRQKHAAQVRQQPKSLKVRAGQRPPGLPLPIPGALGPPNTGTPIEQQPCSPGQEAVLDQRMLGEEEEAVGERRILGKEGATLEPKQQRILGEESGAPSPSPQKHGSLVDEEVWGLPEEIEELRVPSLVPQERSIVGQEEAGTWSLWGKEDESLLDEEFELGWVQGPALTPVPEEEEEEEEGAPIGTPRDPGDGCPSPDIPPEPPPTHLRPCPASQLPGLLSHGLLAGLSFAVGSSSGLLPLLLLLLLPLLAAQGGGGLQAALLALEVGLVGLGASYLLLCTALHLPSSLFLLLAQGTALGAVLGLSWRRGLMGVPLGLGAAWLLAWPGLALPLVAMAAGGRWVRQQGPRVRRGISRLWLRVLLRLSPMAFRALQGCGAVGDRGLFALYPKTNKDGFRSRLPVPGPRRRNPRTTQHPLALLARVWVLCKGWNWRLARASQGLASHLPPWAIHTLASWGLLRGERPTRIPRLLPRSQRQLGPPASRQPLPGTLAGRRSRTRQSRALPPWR

Tec(h) activated = Tec(h) activated (Homo sapiens (Human), UniProt P42680); parameters: dose or concentration left out as unconfirmed
TLK1(h) = TLK1(h) (Homo sapiens (Human), UniProt Q9UKI8)
TSSK3(h) = TSSK3(h) (Homo sapiens (Human), UniProt Q96PN8); parameters: dose or concentration left out as unconfirmed
TSSK3(h), sequence (Q96PN8 whole entry): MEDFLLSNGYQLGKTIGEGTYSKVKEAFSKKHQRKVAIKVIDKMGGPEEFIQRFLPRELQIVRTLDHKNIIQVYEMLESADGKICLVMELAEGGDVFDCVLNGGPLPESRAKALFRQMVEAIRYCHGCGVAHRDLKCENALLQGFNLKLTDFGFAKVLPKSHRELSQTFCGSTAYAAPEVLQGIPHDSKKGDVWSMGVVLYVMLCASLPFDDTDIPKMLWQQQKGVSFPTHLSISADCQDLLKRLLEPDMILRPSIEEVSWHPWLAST

ULK2(h) = ULK2(h) (Homo sapiens (Human), UniProt Q8IYT8); parameters: dose or concentration left out as unconfirmed

## Cc1cc2c(-c3ccc(NC(=O)[C@H](N)CC(C)(C)C)cc3C)ccnc2[nH]1 [Compound F-90, (2R)-2-Amino-4,4-dimethyl-N-[3-methyl-4-(2-methyl-1H-pyrrolo[2,3-b]pyridin-4-yl)phenyl]pentanamide]
Abl(h)
  % Activity: 99%
ASK1(h)
  % Activity: 100%
ATR/ATRIP(h)
  % Activity: 110%
Aurora-C(h)
  % Activity: 94%
Blk(h)
  % Activity: 88%
CDK14/cyclinY(h)
  % Activity: 91%
CDK6/cyclinD3(h)
  % Activity: 90%
CDK7/cyclinH/MAT1(h)
  % Activity: 95%
CDKL1(h)
  % Activity: 99%
CK1δ(h)
  % Activity: 96%
CK2(h)
  % Activity: 112%
DCAMKL1(h)
  % Activity: 95%
DYRK1B(h)
  % Activity: 108%
DYRK3(h)
  % Activity: 99%
EphA8(h)
  % Activity: 115%
GRK3(h)
  % Activity: 81%
IRR(h)
  % Activity: 110%
JAK2(h)
  % Activity: 104%
JNK2α2(h)
  % Activity: 99%
LATS1(h)
  % Activity: 90%
LATS2(h)
  % Activity: 102%
LIMK1(h)
  % Activity: 70%
MARK1(h)
  % Activity: 106%
MLCK(h)
  % Activity: 98%
NEK6(h)
  % Activity: 86%
Plk4(h)
  % Activity: 92%
PRP4(h)
  % Activity: 100%
STK33(h)
  % Activity: 98%
TAO2(h)
  % Activity: 90%
Tec(h) activated
  % Activity: 126%
TLK1(h)
  % Activity: 82%
TSSK3(h)
  % Activity: 96%
ULK2(h)
  % Activity: 98%
